Columns and labels:
[1] = biological target: T1, human MDM2 protein (amino acids 2-188) (Homo sapiens, UniProt Q00987); assay: p53-MDM2 TR-FRET assay (p53-MDM2 Assay 1); assay type: binding; conditions: 1.25 nM MDM2-biotinylated, 10 nM Cy5-p53 peptide; read-out: IC50 (μM) of p53-Hdm2 inhibition (TR-FRET) Assay 1
T1 construct: human MDM2 protein (amino acids 2-188); made in house
Method in brief: (§1)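 Peptide displacement read as 665/620 nm TR-FRET ratio (excitation 340 nm) after 15 min room temperature with 10 nM Cy5-p53 aa18-26, following 15 min preincubation of Eu-streptavidin (0.625 nM) with biotinylated MDM4 aa 2-185 (2.5 nM) or MDM2 aa 2-188 (1.25 nM); IC50 curve-fitted. MDM2 Assay 2: MDM2 and Eu-streptavidin each 0.1 nM.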

[2] = biological target: T2, human MDM4 protein (amino acids 2-185) (Homo sapiens, UniProt O15151); assay: p53-MDM4 TR-FRET assay (p53-MDM4 Assay 1); assay type: binding; conditions: 2.5 nM MDM4-biotinylated, 10 nM Cy5-p53 peptide; read-out: IC50 (μM) of p53-Hdm4 inhibition (TR-FRET) Assay 1
T2 construct: human MDM4 protein (amino acids 2-185); made in house
T2 sequence (O15151 2-185): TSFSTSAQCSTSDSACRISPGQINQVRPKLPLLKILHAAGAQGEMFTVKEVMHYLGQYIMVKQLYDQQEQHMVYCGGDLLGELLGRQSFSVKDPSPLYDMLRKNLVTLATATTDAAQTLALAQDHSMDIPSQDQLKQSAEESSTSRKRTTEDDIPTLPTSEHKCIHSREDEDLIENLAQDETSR
Method in brief: as §1

T1 sequence (Q00987 2-188): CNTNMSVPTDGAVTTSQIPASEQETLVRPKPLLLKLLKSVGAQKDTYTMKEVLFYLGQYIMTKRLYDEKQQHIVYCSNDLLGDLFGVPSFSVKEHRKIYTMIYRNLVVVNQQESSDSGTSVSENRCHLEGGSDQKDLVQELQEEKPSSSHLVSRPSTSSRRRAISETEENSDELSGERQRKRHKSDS

| IC50 [1] | IC50 [2] | SMILES |
| --- | --- | --- |
| 0.0048 µM | 4.94 µM | CCN1CCC(C(C)(O)c2ccc(N3C(=O)Cc4cc(OC)c(OC(C)C)cc4[C@@H]3c3ccc(Cl)cc3)cc2)CC1 (stereo partly drawn) [Example 85, (S)-1-(4-Chloro-phenyl)-2-{4-[1-(1-ethyl-piperidin-4-yl)-1-hydroxy-ethyl]-phenyl}-7-isopropoxy-6-methoxy-1,4-dihydro-2H-isoquinolin-3-one] |
| 0.0058 µM | 6.45 µM | COc1cc2c(cc1OC(C)C)[C@H](c1ccc(Cl)cc1)N(c1ccc(C(C)(O)C3CCN(CCC(F)(F)F)CC3)cc1)C(=O)C2 (stereo partly drawn) [Example 86] |
| 0.0287 µM | 23.9 µM | COc1cc2c(cc1OC(C)C)[C@H](c1ccc(Cl)cc1)N(c1ccc(C(C)(O)C3CCN(C(=O)C(F)F)CC3)cc1)C(=O)C2 (stereo partly drawn) [Example 87, (S)-1-(4-Chloro-phenyl)-2-(4-{1-[1-(2,2-difluoro-acetyl)-piperidin-4-yl]-1-hydroxy-ethyl}-phenyl)-7-isopropoxy-6-methoxy-1,4-dihydro-2H-isoquinolin-3-one] |
| 0.0114 µM | 10.8 µM | COc1cc2c(cc1OC(C)C)[C@H](c1ccc(Cl)cc1)N(c1ccc(C(C)(O)C3CCN(C(=O)CC#N)CC3)cc1)C(=O)C2 (stereo partly drawn) [Example 88, 3-[4-(1-{4-[(S)-1-(4-Chloro-phenyl)-7-isopropoxy-6-methoxy-3-oxo-3,4-dihydro-1H-isoquinolin-2-yl]-phenyl}-1-hydroxy-ethyl)-piperidin-1-yl]-3-oxo-propionitrile] |
| 0.0028 µM | 2.39 µM | COc1cc2c(cc1OC(C)C)[C@H](c1ccc(Cl)cc1)N(c1ccc(C(C)(O)C3CCN(C=O)CC3)cc1)C(=O)C2 (stereo partly drawn) [Example 89, 4-(1-{4-[(S)-1-(4-Chloro-phenyl)-7-isopropoxy-6-methoxy-3-oxo-3,4-dihydro-1H-isoquinolin-2-yl]-phenyl}-1-hydroxy-ethyl)-piperidine-1-carbaldehyde] |
| 0.0342 µM | 34.7 µM | COc1cc2c(cc1OC(C)C)[C@H](c1ccc(Cl)cc1)N(c1ccc(C(C)(O)C3CN(C4CCOCC4)C3)cc1)C(=O)C2 (stereo partly drawn) [Example 98, (S)-1-(4-Chloro-phenyl)-2-(4-{1-hydroxy-1-[1-(tetrahydro-pyran-4-yl)-azetidin-3-yl]-ethyl}-phenyl)-7-isopropoxy-6-methoxy-1,4-dihydro-2H-isoquinolin-3-one] |
| 0.0279 µM | 24.6 µM | COc1cc2c(cc1OC(C)C)[C@H](c1ccc(Cl)cc1)N(c1ccc(C(C)(O)C3CN(C4CCCCC4)C3)cc1)C(=O)C2 (stereo partly drawn) [Example 99, (S)-1-(4-Chloro-phenyl)-2-{4-[1-(1-cyclohexyl-azetidin-3-yl)-1-hydroxy-ethyl]-phenyl}-7-isopropoxy-6-methoxy-1,4-dihydro-2H-isoquinolin-3-one] |
| 0.0082 µM | 9.66 µM | CCN1CCC(N2CC(C(C)(O)c3ccc(N4C(=O)Cc5cc(OC)c(OC(C)C)cc5[C@@H]4c4ccc(Cl)cc4)cc3)C2)CC1 (stereo partly drawn) [Example 100, (S)-1-(4-Chloro-phenyl)-2-(4-{1-[1-(1-ethyl-piperidin-4-yl)-azetidin-3-yl]-1-hydroxy-ethyl}-phenyl)-7-isopropoxy-6-methoxy-1,4-dihydro-2H-isoquinolin-3-one] |

Further lines, the compound ahead of its results:

| SMILES | IC50 [1] | IC50 [2] |
| --- | --- | --- |
| COc1cc2c(cc1OC(C)C)[C@H](c1ccc(Cl)cc1)N(c1ccc(C(C)(O)C3CN(CC(F)(F)F)C3)cc1)C(=O)C2 (stereo partly drawn) [Example 74, (S)-1-(4-Chloro-phenyl)-2-(4-{1-hydroxy-1-[1-(2,2,2-trifluoro-ethyl)-azetidin-3-yl]-ethyl}-phenyl)-7-isopropoxy-6-methoxy-1,4-dihydro-2H-isoquinolin-3-one] | 0.0179 µM | 18 µM |
| COc1cc2c(cc1OC(C)C)[C@H](c1ccc(Cl)cc1)N(c1ccc(C(C)(O)C3CCN(C(N)=O)CC3)cc1)C(=O)C2 (stereo partly drawn) [Example 75, 4-(1-{4-[(S)-1-(4-Chloro-phenyl)-7-isopropoxy-6-methoxy-3-oxo-3,4-dihydro-1H-isoquinolin-2-yl]-phenyl}-1-hydroxy-ethyl)-piperidine-1-carboxylic acid amide] | 0.0043 µM | 4.95 µM |
| COc1cc2c(cc1OC(C)C)[C@H](c1ccc(Cl)cc1)N(c1ccc(C(C)(O)C3CCN(CC(F)(F)F)CC3)cc1)C(=O)C2 (stereo partly drawn) [Example 77, (S)-1-(4-Chloro-phenyl)-2-(4-{1-hydroxy-1-[1-(2,2,2-trifluoro-ethyl)-piperidin-4-yl]-ethyl}-phenyl)-7-isopropoxy-6-methoxy-1,4-dihydro-2H-isoquinolin-3-one] | 0.011 µM | 13.5 µM |
| COc1cc2c(cc1OC(C)C)[C@H](c1ccc(Cl)cc1)N(c1ccc(C(C)(O)C3CCN(C(C)C)CC3)cc1)C(=O)C2 (stereo partly drawn) [Example 78, (S)-1-(4-Chloro-phenyl)-2-{4-[1-hydroxy-1-(1-isopropyl-piperidin-4-yl)-ethyl]-phenyl}-7-isopropoxy-6-methoxy-1,4-dihydro-2H-isoquinolin-3-one] | 0.0043 µM | 3.18 µM |
| CNC(=O)N1CCC(C(C)(O)c2ccc(N3C(=O)Cc4cc(OC)c(OC(C)C)cc4[C@@H]3c3ccc(Cl)cc3)cc2)CC1 (stereo partly drawn) [Example 79, 4-(1-{4-[(S)-1-(4-Chloro-phenyl)-7-isopropoxy-6-methoxy-3-oxo-3,4-dihydro-1H-isoquinolin-2-yl]-phenyl}-1-hydroxy-ethyl)-piperidine-1-carboxylic acid methylamide] | 0.0052 µM | 5.63 µM |
| COc1cc2c(cc1OC(C)C)[C@H](c1ccc(Cl)cc1)N(c1ccc(C(C)(O)C3CCN(C(=O)C4CC4)CC3)cc1)C(=O)C2 (stereo partly drawn) [Example 80] | 0.0052 µM | 5.11 µM |
| COc1cc2c(cc1OC(C)C)[C@H](c1ccc(Cl)cc1)N(c1ccc(C(C)(O)C3CCN(S(C)(=O)=O)CC3)cc1)C(=O)C2 (stereo partly drawn) [Example 81, (S)-1-(4-Chloro-phenyl)-2-{4-[1-hydroxy-1-(1-methanesulfonyl-piperidin-4-yl)-ethyl]-phenyl}-7-isopropoxy-6-methoxy-1,4-dihydro-2H-isoquinolin-3-one] | 0.0057 µM | 5.11 µM |
| COc1cc2c(cc1OC(C)C)[C@H](c1ccc(Cl)cc1)N(c1ccc(C(C)(O)C3CCN(C(=O)N(C)C)CC3)cc1)C(=O)C2 (stereo partly drawn) [Example 82, 4-(1-{4-[(S)-1-(4-Chloro-phenyl)-7-isopropoxy-6-methoxy-3-oxo-3,4-dihydro-1H-isoquinolin-2-yl]-phenyl}-1-hydroxy-ethyl)-piperidine-1-carboxylic acid dimethylamide] | 0.0032 µM | 2.9 µM |
| COc1cc2c(cc1OC(C)C)[C@H](c1ccc(Cl)cc1)N(c1ccc(C(C)(O)C3CCN(C(=O)OC(C)C)CC3)cc1)C(=O)C2 (stereo partly drawn) [Example 83, 4-(1-{4-[(S)-1-(4-Chloro-phenyl)-7-isopropoxy-6-methoxy-3-oxo-3,4-dihydro-1H-isoquinolin-2-yl]-phenyl}-1-hydroxy-ethyl)-piperidine-1-carboxylic acid isopropyl ester] | 0.0069 µM | 7.54 µM |
| COc1cc2c(cc1OC(C)C)[C@H](c1ccc(Cl)cc1)N(c1ccc(C(C)(O)C3CCN(C(=O)NC(C)C)CC3)cc1)C(=O)C2 (stereo partly drawn) [Example 84, 4-(1-{4-[(S)-1-(4-Chloro-phenyl)-7-isopropoxy-6-methoxy-3-oxo-3,4-dihydro-1H-isoquinolin-2-yl]-phenyl}-1-hydroxy-ethyl)-piperidine-1-carboxylic acid isopropylamide] | 0.0056 µM | 5.91 µM |

From patent US8859535B2, “Hydroxy substituted isoquinolinone derivatives” (Novartis AG, priority 2011, dated 2014)
